According to paper PMC10518717, “High-Throughput Screening and Proteomic Characterization of Compounds Targeting Myeloid-Derived Suppressor Cells” (Molecular & Cellular Proteomics : MCP, 2023):
Each block holds one compound with its values, some of them ahead of it.

Experiments:
NUP-MDSC = experiment: Global proteome expression profiling of compound-treated NUP-MDSC (TMT LC-MS/MS); format: cell-based, mouse; details: 72 h; for log2 FC Moce_300/DMSO: 300 nM
Description: After treatments, medium was removed, cells were washed twice with PBS, and the cell pellets were further subjected to proteomic sample preparation.
The cell pellet was reconstituted in 2% SDS in 50 mM Tris–HCl pH 7.5 and lysed by heating to 95 °C for 10 min. One microliter of 100% TFA was added to each sample to hydrolyze DNA, and the pH was subsequently adjusted to 8.5 with 3 M Tris solution. Disulfide bonds were reduced with 10 mM DTT for 45 min at 37 °C, followed by alkylation of cysteines with 55 mM CAA for 30 min at room temperature. Prior to tryptic digestion, the detergent was removed from lysates by SP3 cleanup on an Agilent BRAVO system (Agilent Technologies), following the protocol first described by Hughes et al. ([34]). Briefly, lysate containing 200 μg of protein was mixed with SP3 beads, and proteins were precipitated onto a 50:50 mixture of Sera-Mag Speed Bead types A and B (Thermo Fisher Scientific) in 58% acetonitrile. Beads were washed three times with 80% ethanol in water and once with acetonitrile. Tryptic digest was performed in 100 μl of digestion buffer (2 mM CaCl2 in 25 mM Hepes, pH 8.5) with a 1:50 enzyme-to-protein ratio. Bead-precipitated proteins were digested at 37 °C overnight. On the next day, the supernatant of each sample was transferred to a new well and vacuum dried.
Dried peptides were reconstituted in water and labeled with the respective TMT10plex-labeling reagent as described previously ([35]) with a protein to tandem mass tag (TMT) reagent ratio of 1:2. Labeled samples were pooled, vacuum dried, and reconstituted in 0.1% formic acid (FA) prior to desalting on SepPAC50 columns (waters corp.). Peptides were fractionated using a Dionex Ultra 3000 HPLC system with a Waters XBridge BEH130 C18 3.5 um 2.1 × 250 mm column as described previously ([36]). Ninety-six fractions were collected and pooled to 48. For the full proteome analysis, one fifth of each fraction was transferred to a new 96-well plate and both plates were vacuum dried. For the phosphopeptide analysis, dried peptides were reconstituted in 55 μl 0.1% TFA in 30% ACN, pooled from 48 to 12 fractions, and mixed with 70 μl priming buffer (0.1% TFA, 100% ACN). Phosphopeptides were enriched from each of the 12 fractions using Fe(III)-IMAC-NTA cartridges on the AssayMAP BRAVO (Agilent Technologies) platform as described previously ([36]). Phosphopeptides were eluted with 60 μl 1% ammonia, vacuum dried, and stored at −20 °C prior to LC-MS/MS analysis.
The Fusion Lumos was operated in data-dependent acquisition and positive ionization mode. Samples were measured employing a MS3 method. In brief, full scan MS1 spectra were recorded in the orbitrap (OT) from 360 to 1560 m/z at 60,000 resolution using an automatic gain control (AGC) target value of 4e5 charges and a maximum injection time (maxIT) of 50 ms. Iontrap-MS2 spectra for peptide identification were acquired using higher energy collision dissociation (HCD) fragmentation with 32% normalized collision energy (NCE), an isolation window of 0.6 m/z, and an AGC target value of 1.2e4 charges. To obtain quantitative information on TMT reporter ions, each peptide precursor was fragmented again as for MS2 analysis followed by synchronous selection of the up to eight most intense peptide fragments in the iontrap ([37]) and further fragmentation via HCD using a NCE of 55%. The MS3 scan was recorded in the OT at 50,000 resolution (scan range 100–1000 m/z, isolation window of 1.2 m/z, AGC of 1e5 charges, maxIT of 86 ms). The cycle time was 1.2 s, and the dynamic exclusion lasted for 50 s.
Peptide, protein, and phosphorylation site identification and quantification were performed with MaxQuant software (v. 1.6.3.3, https://www.maxquant.org/) with standard settings for reporter ion MS3 unless described otherwise ([39]). Isotope impurities of the TMT lot were specified to allow MaxQuant the automated correction of TMT intensities. […]

NUP-MDSC cell lysate [1] = molecular target: T1, NUP-MDSC cell lysate (Mus musculus, UniProt Q8WUR0); experiment: Chemoproteomic competition pulldown assay (iCor/iEnt affinity matrix), proteome-wide; format: binding; details: protein 1600014C10Rik (Protein C19orf12 homolog)
T1 construct: endogenous in cells; host or cells: mouse NUP-MDSC (lysate)
T1 sequence (Q8WUR0 1-141): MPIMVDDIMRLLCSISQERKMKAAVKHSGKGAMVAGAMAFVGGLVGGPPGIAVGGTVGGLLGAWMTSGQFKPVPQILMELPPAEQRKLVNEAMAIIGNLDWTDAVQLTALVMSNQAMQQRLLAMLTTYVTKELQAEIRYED
From the text: (§1) Targets of the inhibitors were annotated manually.

NUP-MDSC cell lysate [2] = molecular target: T2, NUP-MDSC cell lysate (Mus musculus, UniProt G5E8Z3); experiment: as above; format: binding; details: protein 2310050C09Rik (G5E8Z3)
T2 construct: endogenous in cells; host or cells: mouse NUP-MDSC (lysate)
From the text: as §1

A594 cells = experiment: CellROX-based detection of ROS levels; format: cell-based; details: 48 h treatment (compound 2 7.8 μM, N-acetyl-cysteine 300 μM), then 200 μM tert-butyl hydroperoxide 2 h; compared to compound 3 10 μM
Description: A594 cells were maintained in Fluorobrite DMEM (Thermo Fisher Scientific) supplemented with GlutaMAX (Thermo Fisher Scientific) and 10% fetal bovine serum (PAN Biotech). Cells were seeded onto a 24-well microplate (Ibidi) and treated with DMSO, 7.8 μM compound 2 (3x EC50), 10 μM compound 3, or 300 μM N-acetyl-cysteine for 48 h. After the treatment, cells were incubated with 200 μM tert-butyl hydroperoxide (Sigma) for 2 h to stimulate ROS production. Then, cells were stained with CellROX deep red (Thermo Fisher Scientific) following the manufacturer’s guidelines. CellROX deep red signal was measured on a Leica DMI 6000 B epifluorescent microscope with a Cy5 filter set. Mean signal intensity per cell was determined from >100 cells per condition from three independent treatments.
For the CellROX assay, three independent treatments were conducted. From each, the mean signal intensity per cell was determined for >100 cells per condition. The statistical significance was calculated by one-way ANOVA followed by a post hoc Tukey’s multiple comparisons test using GraphPad Prism (v.8.3.0).

Arginase = molecular target: T3, Arginase (Mus musculus, UniProt Q61176); experiment: Arginase activity assay (Arginase Activity Assay Kit) in cell lysates; format: biochemical; details: NUP-MDSC lysates; titrated amounts of inhibitor
T3 construct: endogenous in cells; host or cells: mouse NUP cells / NUP-MDSC (lysate)
T3 sequence (Q61176 1-323): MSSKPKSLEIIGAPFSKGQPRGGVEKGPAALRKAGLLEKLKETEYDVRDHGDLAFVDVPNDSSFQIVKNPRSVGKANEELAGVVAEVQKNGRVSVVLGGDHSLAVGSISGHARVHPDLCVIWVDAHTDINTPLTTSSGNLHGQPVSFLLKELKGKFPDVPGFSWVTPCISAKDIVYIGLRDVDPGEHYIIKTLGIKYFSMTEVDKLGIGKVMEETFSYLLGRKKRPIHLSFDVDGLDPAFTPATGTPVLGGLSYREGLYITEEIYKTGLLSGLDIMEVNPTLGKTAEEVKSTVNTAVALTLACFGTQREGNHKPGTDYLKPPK
Description: Arginase catalyzes the conversion of arginine to urea and ornithine. The urea produced specifically reacts with the assay substrate to generate a colored product, proportional to the arginase activity. Cells were washed with PBS and lysed for 10 min in 10 mM Tris–HCl, pH7.4 containing protease inhibitors and 0.4% (w/v) Triton X-100. Lysates were centrifuged at 13,000g for 10 min, and supernatant was used for analysis. Arginase activity was analyzed using the Arginase Activity Assay Kit (Sigma, MAK112) according to manufacturer’s protocol. Lysates were untreated or treated with titrated amounts of the arginase inhibitor (3R,4S)-3-amino-1-[(2S)-2-aminopropanoyl]-4-(3-boronopropyl)pyrrolidine-3-carboxylic acid. Absorbance (430 nm) was analyzed in an Infinite M1000 Pro (Tecan) plate reader after 120 min of incubation. Arginase activity was determined as follows: arginase activity = absorbance-blank/(urea standard-H2O Control)∗(1 mM∗reaction volume ∗10³/(incubation time in min∗sample volume (μL))). One unit of arginase is the amount of enzyme that will convert 1.0 μmole of L-arginine to ornithine and urea per minute at pH 9.5 and 37 °C.

T2 sequence (G5E8Z3 1-280): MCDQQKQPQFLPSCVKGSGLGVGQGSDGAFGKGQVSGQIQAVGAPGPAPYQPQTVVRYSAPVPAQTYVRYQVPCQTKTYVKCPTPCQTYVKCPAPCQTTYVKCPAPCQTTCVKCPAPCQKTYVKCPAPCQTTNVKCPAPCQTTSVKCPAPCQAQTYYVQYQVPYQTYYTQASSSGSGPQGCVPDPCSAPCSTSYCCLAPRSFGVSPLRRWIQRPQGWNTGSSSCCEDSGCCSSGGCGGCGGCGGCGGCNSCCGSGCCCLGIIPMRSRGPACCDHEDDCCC

Intensity 10nM (NUP-MDSC cell lysate [1]; Mocetinostat 10nM): 53804000
LFQ intensity 10nM (NUP-MDSC cell lysate [1]; Mocetinostat 10nM): 30216000
Intensity 30nM (NUP-MDSC cell lysate [1]; Mocetinostat 30nM): 64537000
LFQ intensity 30nM (NUP-MDSC cell lysate [1]; Mocetinostat 30nM): 37744000
Intensity 100nM (NUP-MDSC cell lysate [1]; Mocetinostat 100nM): 59266000
LFQ intensity 100nM (NUP-MDSC cell lysate [1]; Mocetinostat 100nM): 38158000
Intensity 300nM (NUP-MDSC cell lysate [1]; Mocetinostat 300nM): 53823000
LFQ intensity 300nM (NUP-MDSC cell lysate [1]; Mocetinostat 300nM): 43828000
Intensity 1000nM (NUP-MDSC cell lysate [1]; Mocetinostat 1000nM): 51502000
LFQ intensity 1000nM (NUP-MDSC cell lysate [1]; Mocetinostat 1000nM): 40150000
Intensity 3000nM (NUP-MDSC cell lysate [1]; Mocetinostat 3000nM): 76226000
LFQ intensity 3000nM (NUP-MDSC cell lysate [1]; Mocetinostat 3000nM): 38853000
Intensity 30000nM (NUP-MDSC cell lysate [1]; Mocetinostat 30000nM): 39641000
LFQ intensity 30000nM (NUP-MDSC cell lysate [1]; Mocetinostat 30000nM): 39494000
Intensity 10nM (NUP-MDSC cell lysate [2]; Mocetinostat 10nM): 25441000
LFQ intensity 10nM (NUP-MDSC cell lysate [2]; Mocetinostat 10nM): 9384100
Intensity 30nM (NUP-MDSC cell lysate [2]; Mocetinostat 30nM): 13403000
LFQ intensity 30nM (NUP-MDSC cell lysate [2]; Mocetinostat 30nM): 6282200
Intensity 100nM (NUP-MDSC cell lysate [2]; Mocetinostat 100nM): 19942000
LFQ intensity 100nM (NUP-MDSC cell lysate [2]; Mocetinostat 100nM): 8726600
Intensity 300nM (NUP-MDSC cell lysate [2]; Mocetinostat 300nM): 13729000
LFQ intensity 300nM (NUP-MDSC cell lysate [2]; Mocetinostat 300nM): 7913100
Intensity 1000nM (NUP-MDSC cell lysate [2]; Mocetinostat 1000nM): 4275900
LFQ intensity 1000nM (NUP-MDSC cell lysate [2]; Mocetinostat 1000nM): 0
Intensity 3000nM (NUP-MDSC cell lysate [2]; Mocetinostat 3000nM): 53551000
LFQ intensity 3000nM (NUP-MDSC cell lysate [2]; Mocetinostat 3000nM): 32269000
Intensity 30000nM (NUP-MDSC cell lysate [2]; Mocetinostat 30000nM): 25441000
LFQ intensity 30000nM (NUP-MDSC cell lysate [2]; Mocetinostat 30000nM): 13756000
Structure (SMILES): Nc1ccccc1NC(=O)c1ccc(CNc2nccc(-c3cccnc3)n2)cc1 [mocetinostat]
protein expression of Il1a, Il1b, and Il1rn (NUP-MDSC; 30 and 300 nM): dose-dependently upregulated
protein level of Cxcr3, Ccl9, and Ccr5 (NUP-MDSC; 30 and 300 nM, dose-dependent manner): increased
log2 FC Moce_300/DMSO (NUP-MDSC; protein Cask): -0.508
log2 FC Moce_300/DMSO (NUP-MDSC; protein Hsf1): -0.2561
log2 FC Moce_300/DMSO (NUP-MDSC; protein Inpp5j): 0.2433
log2 FC Moce_300/DMSO (NUP-MDSC; protein Magohb;Magoh): -0.03048

Structure (SMILES): CC(=O)N[C@@H](CS)C(=O)O [N-acetyl-cysteine]
CellROX Deep Red fluorescence (amount of ROS in a cell) (A594 cells): decreased significantly

arginase activity (Arginase): dose dependently decreased
Structure (SMILES): C[C@H](N)C(=O)N1C[C@H](CCCB(O)O)[C@](N)(C(=O)O)C1 [arginase inhibitor, (3R,4S)-3-amino-1-[(2S)-2-aminopropanoyl]-4-(3-boronopropyl)pyrrolidine-3-carboxylic acid]
